ED50 data for ten molecules are collected here from ChEMBL document CHEMBL1122549, “Opioid agonists and antagonists. 6,6-Hydrazi and 6-oximino derivatives of 14-hydroxydihydromorphinones” (1984).

What all share (format): functional
Assay [1] deals with Mus musculus. Description: Compound was evaluated in vivo for the antagonist activity by the tail flick assay using morphine as the agonist in mice. A general note: Hot-plate and tail-flick tests time the reaction to a heat stimulus.
Assay [2] deals with Mus musculus. Description: Compound was evaluated in vivo for the agonist activity after subcutaneous administration as aqueous solutions of HCl salt in mice using Tail flick assay. The settings on record: sc.
Assay [3] deals with Mus musculus. Description: Compound was evaluated in vivo for the agonist activity after subcutaneous administration as aqueous solutions of HCl salt in mice using Nilsen assay. The settings on record: sc.
Assay [4] has as its system Mus musculus. The assay can be described thus: Compound was evaluated in vivo for the agonist activity after subcutaneous administration as aqueous solutions of HCl salt in mice using Hot plate assay. The settings on record: sc.
The test system of assay [5] is Mus musculus. The assay can be described thus: Compound was evaluated in vivo for the agonist activity after subcutaneous administration as aqueous solutions of HCl salt in mice using Phenylquinone (PPQ) writhing assay. The settings on record: sc. (Writhing tests count abdominal constrictions after an irritant is injected.)
The test system of assay [6] is Mus musculus. Description: Compound was evaluated in vivo for the antagonist activity by the tail flick assay using morphine as the agonist in mice.
For assay [7], the system named is Mus musculus. Description: Compound was evaluated in vivo for the agonist activity after subcutaneous administration as aqueous solutions of HCl salt in mice using Nilsen assay. Conditions: sc.

For `CO/N=C1\CCC2(O)C3Cc4ccc(O)c5c4C2(CCN3CC2CC2)C1O5` (centres undefined), the 50% effect level in the assay on Mus musculus [1] (ED50) was put at a dose of 0.08 mg/kg. As to `CN1CCC23c4c5ccc(O)c4OC2C2(CCC3(O)C1C5)NN2` (centres undefined), the 50% effective dose (ED50) (in general, the dose that gives a 50% effect, or the effect in half of the subjects) with Mus musculus [2] came out at 0.7 mg/kg; with Mus musculus [3], 2 mg/kg; in the assay on Mus musculus [4], 0.81 mg/kg; in the assay with Mus musculus [5] it was 0.05 mg/kg. For `Oc1ccc2c3c1OC1C4(CCC5(O)C(C2)N(CC2CC2)CCC315)NN4` (centres undefined), it took a dose of 0.02 mg/kg to reach the 50% effect level in the assay on Mus musculus [6] (ED50). As to `CN1CCC23c4c5ccc(O)c4OC2/C(=N/O)CCC3(O)C1C5` (centres undefined), the ED50 with Mus musculus [7] was found to be 0.45 mg/kg; in the assay on Mus musculus [2] it was 2.2 mg/kg; in the assay with Mus musculus [4], 0.56 mg/kg; in the assay with Mus musculus [5], 0.1 mg/kg. Regarding `O/N=C1\CCC2(O)C3Cc4ccc(O)c5c4C2(CCN3CC2CC2)C1O5` (centres undefined), the ED50 in the assay on Mus musculus [6] was 0.08 mg/kg. As for `C=CCN1CCC23c4c5ccc(O)c4OC2/C(=N/O)CCC3(O)C1C5` (centres undefined), the 50% effect level in the assay with Mus musculus [1] (ED50) was put at a dose of 0.06 mg/kg.

For `CO/N=C1\CCC2(O)C3Cc4ccc(O)c5c4C2(CCN3C)C1O5` (centres undefined), the ED50 was found to be 0.08 mg/kg with Mus musculus [2], 0.22 mg/kg with Mus musculus [4] and 0.02 mg/kg in the assay with Mus musculus [5]. Molecule `C=CCN1CCC23c4c5ccc(O)c4OC2/C(=N/OC)CCC3(O)C1C5` (centres undefined) showed an ED50 with Mus musculus [1] of 1.9 mg/kg. As to `CN1CC[C@]23c4c5ccc(O)c4O[C@H]2[C@@H](O)CC[C@H]3[C@H]1C5.Cl`, the ED50 was 0.2 mg/kg in the assay with Mus musculus [7] and 0.19 mg/kg in the assay on Mus musculus [4].

In the assay on Mus musculus [6], `Cl.O=C1CC[C@@]2(O)[C@H]3Cc4ccc(O)c5c4[C@@]2(CCN3CC2CC2)[C@H]1O5` [NALTREXONE HYDROCHLORIDE] gave an ED50 of 0.007 mg/kg.
